Source: the supplement of paper PMC10307832

Assays:
Test in all cases: relative viability (nuclei count vs DMSO), 5 days (fraction); higher = more cells survive
YM155 + Decitabine = compound: COCC[n+]1c2c(n(Cc3cnccn3)c1C)C(=O)c1ccccc1C2=O [YM155] + Nc1ncn([C@H]2C[C@H](O)[C@@H](CO)O2)c(=O)n1 [Decitabine] (partner 2 µM)
Summary of the method: (§1)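 Relative viability divides the nuclei count in treated wells by that in vehicle wells. Lung cancer cell lines were seeded in 1536-well plates, dosed by pin tool the next day, and fixed and stained after 5 days in one step with final 0.05% Triton X-100, 1% formaldehyde and 1 ug/ml Hoechst. Dosing was a single drug or a fixed anchor-drug dose plus five library-drug doses (not always all listed) in √10 steps, and values are medians of duplicate plates imaged at 4×.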

YM155 + Palbociclib = compound: COCC[n+]1c2c(n(Cc3cnccn3)c1C)C(=O)c1ccccc1C2=O [YM155] + CC(=O)c1c(C)c2cnc(Nc3ccc(N4CCNCC4)cn3)nc2n(C2CCCC2)c1=O [Palbociclib] (partner 0.5 µM)
Summary of the method: as §1

Quizartinib + Crizotinib = compound: CC(C)(C)c1cc(NC(=O)Nc2ccc(-c3cn4c(n3)sc3cc(OCCN5CCOCC5)ccc34)cc2)no1 [Quizartinib] + C[C@@H](Oc1cc(-c2cnn(C3CCNCC3)c2)cnc1N)c1c(Cl)ccc(F)c1Cl [Crizotinib] (partner 1 µM)
Summary of the method: as §1

Quizartinib + Linsitinib = compound: CC(C)(C)c1cc(NC(=O)Nc2ccc(-c3cn4c(n3)sc3cc(OCCN5CCOCC5)ccc34)cc2)no1 [Quizartinib] + C[C@]1(O)C[C@@H](c2nc(-c3ccc4ccc(-c5ccccc5)nc4c3)c3c(N)nccn32)C1 [Linsitinib] (partner 1 µM)
Summary of the method: as §1

Cell Line	relative viability (YM155 + Decitabine; first compound 0.002 µM)	relative viability (YM155 + Decitabine; first compound 0.006325 µM)	relative viability (YM155 + Decitabine; first compound 0.02 µM)	relative viability (YM155 + Decitabine; first compound 0.06325 µM)	relative viability (YM155 + Palbociclib; first compound 0.002 µM)	relative viability (YM155 + Palbociclib; first compound 0.006325 µM)	relative viability (YM155 + Palbociclib; first compound 0.02 µM)	relative viability (YM155 + Palbociclib; first compound 0.06325 µM)	relative viability (Quizartinib + Crizotinib; first compound 0.001 µM)	relative viability (Quizartinib + Crizotinib; first compound 0.003162 µM)	relative viability (Quizartinib + Crizotinib; first compound 0.01 µM)	relative viability (Quizartinib + Crizotinib; first compound 0.03162 µM)	relative viability (Quizartinib + Crizotinib; first compound 0.1 µM)	relative viability (Quizartinib + Linsitinib; first compound 0.001 µM)	relative viability (Quizartinib + Linsitinib; first compound 0.003162 µM)	relative viability (Quizartinib + Linsitinib; first compound 0.01 µM)	relative viability (Quizartinib + Linsitinib; first compound 0.03162 µM)	relative viability (Quizartinib + Linsitinib; first compound 0.1 µM)
NCI-H3122	0.428	0.432	0.482	0.486	0.184	0.178	0.218	0.171	0.268	0.253	0.304	0.279	0.26	1.04	1.03	1.1	1.05	0.964
HARA		0.566	0.578	0.57	0.235	0.262	0.328	0.211	0.87	0.97	1.17	1.08	1.09	0.585	0.906	0.953	0.958	0.974
SK-LU-1	0.57	0.695	0.63	0.506	0.405	0.495	0.404	0.412	0.797	0.785	1.23	0.781	0.914	0.941	1.07	1.31	1.11	0.906
LK-2	0.29	0.14	0.341	0.362	0.851	0.655	0.632	0.78	0.186	0.224	0.229	0.238	0.24	0.479	0.617	0.621	0.523	0.521
UMC-11	0.551	0.574	0.725	0.626	0.327	0.356	0.336	0.33	0.543	0.562	0.739	0.66	0.577	1.05	0.964	1.06	0.914	1.02
NCI-H1355	0.312	0.374	0.383	0.357	0.4	0.39	0.4	0.394	1.03	1.01	1.11	0.99	1.15	0.804	0.817	0.827	0.799	0.842
NCI-H727	0.871	1.01	0.867	0.857	0.639	0.694	0.615	0.705	0.74		0.939	0.772	0.662	0.164		0.387	0.309	0.174
NCI-H460	0.496	0.503	0.477	0.475	0.166	0.169	0.226	0.212	0.708	0.842	1.02		0.416	0.583	0.572	0.782		0.708
NCI-H647	0.482	0.405	0.288	0.272	0.348	0.424	0.423	0.238	0.9	0.948	1.31	1.06	0.847	1.17	1.07	1.26	1.18	1.45
NCI-H358	0.257	0.2	0.199	0.22	0.129	0.129	0.134	0.157	0.584	0.558	0.66		0.38	0.592	0.688	0.768		0.698
HOP-62	0.221	0.242	0.235	0.214	0.484	0.441	0.42	0.437	0.881	0.98	1.11	1.11	0.86	1.02	0.933	0.822	0.913	1.07
HCC-44	0.936	1	0.929	0.964	0.975	1.01	0.928	1	0.66	0.817	0.927	0.765	0.682	0.639	0.647	0.695	0.69	0.632
NCI-H1993	0.607	0.644	0.597	0.439	0.557	0.657	0.554	0.43	0.904	0.951	0.916	0.952	0.948	0.739	0.716	0.817	0.757	0.833
A-427	0.525	0.567	0.571	0.466	0.532	0.502	0.567	0.293	0.808	0.926	0.941	0.813	0.638	1.04	1.08	1.14	1.04	1.12
COR-L23	0.439	0.315	0.317	0.169	0.279	0.272	0.217	0.152	0.573	0.538	0.753	0.51	0.67	0.829	0.9	1.05	0.748	0.92
NCI-H2023	0.224	0.201	0.193	0.184	0.384	0.423	0.21	0.105	0.648	0.57	0.799	0.246	0.543	0.556	0.585	0.564	0.454	0.574
NCI-H661	0.516	0.516	0.533	0.47	0.405	0.401	0.418	0.327	0.905	0.998	1.07		0.856	0.564	0.544	0.433	0.58	0.737
NCI-H322M	0.689	0.722	0.7	0.753	0.433	0.471	0.503	0.473	0.881	0.803	0.955	0.857	0.997	0.798	1.01	1.02	0.917	0.92
NCI-H838	0.423	0.471	0.399	0.383	0.191	0.237	0.226	0.198	0.787	0.878	0.767	0.691	0.368	0.919	0.912	0.991	0.963	0.576
NCI-H23		0.278	0.291	0.363		0.567	0.523	0.388		0.478	0.514	0.483	0.486		0.577	0.615	0.555	0.661
LOU-NH91	0.766	0.812	0.852	0.831	0.527	0.509	0.628	0.544	0.747	0.715	0.771	0.729	0.79	0.899	0.954	0.996	0.825	1.11
